Test results: US11779559B2, “Compositions for treating fungal and bacterial biofilms and methods of using the same” (priority 2017, dated 2023)
Where two headings read alike, the source gives them in different places.

Key:
[1] = system: fungal and bacterial biofilms; experiment: Biofilm assays (sustained inhibition and disruption), fungal and bacterial biofilms; type: cell-based; conditions: for Effect on bacterial or fungal biofilms in both assays: sustained inhibition and disruption; for Effect on biofilms: single component on its own
Protocol: (§1) Two types of biofilm assays were performed: a sustained inhibition assay and a disruption assay. The sustained inhibition assay assesses the compound's ability to prevent biofilm development throughout all stages of biofilm formation, while the disruption assay assesses the compound's ability to break up an existing mature biofilm. These assays are described in detail in the following article: Lohse, M. B., Gulati, M., Valle Arevalo, A., Fishburn, A., Johnson, A. D., and Nobile, C. J. (2017) Assessment and optimizations of Candida albicans in vitro biofilm assays. Antimicrobial Agents and Chemotherapy 61: e02749-16.
(§2) For fungal biofilm assays, all solutions were prepared in RPMI 1640 medium. All bacterial biofilm solutions were prepared in Trypic Soy Broth (TSB), supplemented with 1% glucose (henceforth referred to as TSB-G). All subsequent procedures were performed in a manner that maintained sterility. A solution of each amino acid to be tested was prepared in weight to volume concentrations ranging from 0.1-5.0%. Amino acids were also tested in combinations. Compound solutions were homogenized with gentle agitation in the dark (4° C., 24 hours) before use.
(§3) All biofilm assays were performed using 384-well non-tissue culture treated polystyrene plates. The fungal species tested are as follows: Candida albicans, Candida guilhermondii, Candida parapsilosis, Candida glabrata, Candida tropicalis, Candida dubliniensis, and Candida auris. The bacterial species tested are as follows: Staphylococcus aureus (standard wild type and methicillin-resistant strain USA300), Escherichia coli, Pseudomonas aeruginosa and Staphylococcus epidermidis.
(§4) Fungal strains were streaked on Yeast Peptone Dextrose (YPD) agar plates and incubated at 30° C. for 48 hours. A single colony from each strain to be tested was inoculated into YPD broth and grown for 12 hours, at 30° C., shaking at 225 rpm. For the fungal biofilm inhibition assay, 1 μl of saturated overnight cell culture was added to either 80 μL of RPMI-1640 or RPMI-1640 supplemented with the amino acid compound solution to be tested, in a 384-well plate. The cells were allowed to adhere to the plate for 90 minutes at 37° C. with shaking (350 rpm). Loosely bound cells were washed once with phosphate buffered saline (PBS) and 80 ul of RPMI-1640, or RPMI-1640 supplemented with the amino acid compound solution was added to the plate. The plate was further incubated for 24 hours at 37° C. with shaking (350 rpm). Media was carefully aspirated and the biofilm was measured by optical density at 600 nm. Twelve replicates were performed for each tested condition and the reported values are normalized to the control (RPMI-1640 media only). For the fungal biofilm disruption assays, 80 μL of RPMI-1640 was added to the plate, along with 1 μL of overnight cell culture. The cells were allowed to adhere to the plate for 90 minutes at 37° C. with shaking (350 rpm). Loosely bound cells were washed once with PBS and 80 μL of RPMI-1640 was added to the plate. The plate was further incubated for 24 hours at 37° C. with shaking (350 rpm). Media was carefully aspirated from the mature biofilm and 80 μL of RPMI-1640, or RPMI-1640 supplemented with the amino acid compound solution to be tested, was gently added to the plate. The plate was further incubated for 24 hours at 37° C. with shaking (350 rpm). Media was carefully aspirated and the biofilm was measured by optical density at 600 nm. Twelve replicates were performed for each tested condition and the reported values are normalized to the control (RPMI-1640 media only).
Bacterial strains were streaked on Blood Agar plates (5% sheep blood in Tryptic Soy Agar) and incubated at 37° C. for 24 hours. A single colony from each strain to be tested was inoculated in a TSB broth and grown for 12 hours, at 37° C. with shaking (225 rpm).

S. aureus [2] = experiment: Sustained inhibition biofilm assay, bacterial; type: cell-based, Staphylococcus aureus; conditions: for activation at 1 %: Staphylococcus aureus, read-out: Promote B Biofilm
Protocol: as §1, with “J. (2017) Assessment and optimizations of Candida albicans in vitro biofilm assays.” left out
as §2, with “All” for “For fungal biofilm assays, all solutions were prepared in RPMI 1640 medium. All”
(§5) Bacterial strains were streaked on Blood Agar plates (5% sheep blood in Tryptic Soy Agar) and incubated at 37° C. for 24 hours. A single colony from each strain to be tested was inoculated in a TSB broth and grown for 12 hours, at 37° C. with shaking (225 rpm). For the bacterial biofilm inhibition assays, 1 μL of saturated overnight cell culture was added to either 80 μL of TSB-G, or TSB-G supplemented with the amino acid compound solution to be tested, in a 384-well plate. The cells were allowed to adhere to the plate for 60 minutes at 37° C. without shaking. The media was carefully aspirated and 80 μL of TSB-G, or TSB-G supplemented with the amino acid compound solution was added to the plate. The plate was further incubated for 24 hours at 37° C. without shaking. Media was carefully aspirated and the biofilm was measured by optical density at 600 nm. Eight or twelve replicates were performed for each tested condition and the reported values are normalized to the control (TSB-G media only). For the bacterial biofilm disruption assays, 80 μL of TSB-G was added to the plate, along with 1 μL of overnight cell culture. The cells were allowed to adhere to the plate for 60 minutes at 37° C. with no shaking. The media was carefully aspirated and 80 μL of TSB-G was added to the plate. The plate was further incubated for 24 hours at 37° C. with no shaking. Media was carefully aspirated from the mature biofilm and 80 μL of TSB-G, or TSB-G supplemented with the amino acid to be tested, was gently added to the plate. The plate was further incubated for 24 hours at 37° C. without shaking. Media was aspirated and the biofilm was measured by optical density at 600 nm. Twelve replicates were performed for each tested condition and the reported values are normalized to the control (TSB-G media only).

S. aureus [3] = experiment: Disruption biofilm assay, bacterial; type: cell-based, Staphylococcus aureus; conditions: for inhibition at 1 % / activation at 1 %: Staphylococcus aureus; for inhibition at 1 %: 24 h, read-out: Reduce B Biofilm; for activation at 1 %: read-out: Promote B Biofilm
Protocol: as §1, with “J. (2017) Assessment and optimizations of Candida albicans in vitro biofilm assays.” left out
as §2, with “All” for “For fungal biofilm assays, all solutions were prepared in RPMI 1640 medium. All”
as §5

bacterial biofilms = experiment: Biofilm assays (sustained inhibition and/or disruption), bacterial biofilms; type: cell-based; conditions: in at least one of the two biofilm assays; for Anti-biofilm effect against bacterial biofilms (reduction): administered individually at about 0.1 to about 5.0% weight to volume
Protocol: as §1, §2, §3, §5

fungal biofilms = experiment: Biofilm assays (sustained inhibition and/or disruption), fungal biofilms; type: cell-based; conditions: administered individually; in at least one of the two biofilm assays
Protocol: as §1, §2, §3, §4

[4] = sustained inhibition assay, S. aureus, 1% amino acid (unless specifically noted), p≤0.001
[5] = disruption assay, S. aureus, 1% amino acid (unless specifically noted), p≤0.001

Row | SMILES | activation at 1 % (S. aureus [3]; [5]) | Effect on bacterial biofilm growth (bacterial biofilms) | activation at 1 % (S. aureus [2]; [4]) | further results
1 | Cn1cnc(C[C@H](N)C(=O)O)c1 [1-Methylhistidine, 1-methyl-L-histidine] |  |  |  | Effect on bacterial or fungal biofilms in both assays [1]: neutral
2 | NC(CCCC(=O)O)C(=O)O (stereo not drawn) [2 Aminoadipic Acid, 2-aminoadipic acid] |  |  |  | Reduce B Biofilm (S. aureus [2]; [4]): ● (a single dot [ie. •] signifies minor effect (from about 10 to about 30% change)); inhibition at 1 % (S. aureus [3]; [5]): 10 to 30%; Anti-biofilm effect against bacterial biofilms (reduction) (bacterial biofilms): less than twofold
3 | CCC(N)C(=O)O (stereo not drawn) [2 Aminobutyric Acid, 2-aminobutyric acid] |  |  |  | Effect on bacterial or fungal biofilms in both assays [1]: neutral
4 | C[C@H](N)C(=O)O [Alanine, L-alanine] | 10 to 30% | support (improve) bacterial biofilm growth |  | 
5 | N=C(N)NCCC[C@H](N)C(=O)O [Arginine, L-arginine] |  | support (improve) bacterial biofilm growth |  | activation at 1 % (S. aureus [2]): 10 to 30%; activation at 1 % (S. aureus [3]): 10 to 30%
6 | NC(=O)C[C@H](N)C(=O)O [Asparagine, L-asparagine] |  | support (improve) bacterial biofilm growth | 10 to 30% | 
7 | NCCC(=O)O [Beta-Alanine, Beta-alanine] |  |  |  | Reduce B Biofilm (S. aureus [2]; [4]): ● (a single dot [ie. •] signifies minor effect (from about 10 to about 30% change)); Anti-biofilm effect against bacterial biofilms (reduction) (bacterial biofilms): less than twofold
8 | NC(=O)NCCC[C@H](N)C(=O)O [Citrulline, L-citrulline] |  | support (improve) bacterial biofilm growth |  | activation at 1 % (S. aureus [2]): 10 to 30%; activation at 1 % (S. aureus [3]): 10 to 30%
9 | N[C@@H](CCSC[C@H](N)C(=O)O)C(=O)O [Cystathionine (0.2%), L-cystathionine] |  |  |  | inhibition at 1 % (S. aureus [3]; [5]): 10 to 30%
10 | NCC(=O)O [Glycine, L-glycine] | 10 to 30% | support (improve) bacterial biofilm growth | 10 to 30% | 
11 | N[C@@H](Cc1c[nH]cn1)C(=O)O [Histidine, L-histidine] |  |  |  | Effect on bacterial or fungal biofilms in both assays [1]: neutral
12 | N[C@@H](CCS)C(=O)O [Homocysteine (0.4%), L-homocysteine] |  |  |  | Anti-biofilm effect against fungal biofilms (reduction) (fungal biofilms): less than twofold
13 | O=C(O)[C@@H]1C[C@@H](O)CN1 [Hydroxyproline, Trans-4-hydroxy-L-proline] |  |  |  | Reduce B Biofilm (S. aureus [2]; [4]): ● (a single dot [ie. •] signifies minor effect (from about 10 to about 30% change)); inhibition at 1 % (S. aureus [3]): 10 to 30%; Anti-biofilm effect against bacterial biofilms (reduction) (bacterial biofilms): less than twofold
14 | CC[C@H](C)[C@H](N)C(=O)O [Isoleucine, L-isoleucine] | 10 to 30% | support (improve) bacterial biofilm growth |  | 
15 | CC(C)C[C@H](N)C(=O)O [Leucine, L-leucine] | 10 to 30% | support (improve) bacterial biofilm growth | 10 to 30% | 
16 | NCCCC[C@H](N)C(=O)O [Lysine, L-lysine] |  | support (improve) bacterial biofilm growth |  | activation at 1 % (S. aureus [2]): 10 to 30%; activation at 1 % (S. aureus [3]): 10 to 30%
17 | CSCC[C@H](N)C(=O)O [Methionine, L-methionine] |  | support (improve) bacterial biofilm growth | 10 to 30% | 
18 | NCCC[C@H](N)C(=O)O [Ornithine, L-ornithine] | 10 to 30% | support (improve) bacterial biofilm growth | 10 to 30% | 
19 | N[C@@H](Cc1ccccc1)C(=O)O [Phenylalanine, L-phenylalanine] | 10 to 30% | support (improve) bacterial biofilm growth | 10 to 30% | 
20 | NCCOP(=O)(O)O [Phosphoethanolamine, 0-phosphoethanolamine] |  |  |  | Reduce B Biofilm (S. aureus [2]; [4]): ● (a single dot [ie. •] signifies minor effect (from about 10 to about 30% change)); Reduce B Biofilm (S. aureus [3]; [5]): ● (a single dot [ie. •] signifies minor effect (from about 10 to about 30% change)); Anti-biofilm effect against bacterial biofilms (reduction) (bacterial biofilms): less than twofold
21 | N[C@@H](CO)C(=O)O [Serine, L-serine] | 10 to 30% | support (improve) bacterial biofilm growth | 10 to 30% | 
22 | NCCS(=O)(=O)O [Taurine, L-taurine] | 10 to 30% | support (improve) bacterial biofilm growth | 10 to 30% | 
23 | C[C@@H](O)[C@H](N)C(=O)O [Threonine, L-threonine] |  | support (improve) bacterial biofilm growth | 10 to 30% | 
24 | N[C@@H](Cc1c[nH]c2ccccc12)C(=O)O [Tryptophan, L-tryptophan] |  |  |  | Effect on bacterial or fungal biofilms in both assays [1]: neutral
25 | N[C@@H](Cc1ccc(O)cc1)C(=O)O [Tyrosine, L-tyrosine] |  |  |  | Effect on biofilms [1]: neutral effect on biofilms; Effect on bacterial or fungal biofilms in both assays [1]: neutral
26 | OCC(O)CO [glycerol] |  |  |  | Effect on biofilms [1]: not found to have antibiofilm effects
